We go through five substances from patent US11466054B2, “Inhibitors of metastasis” (BIOMARCK PHARMACEUTICALS LTD., priority 2013, dated 2022).

Where no end group is shown, it is not given here. The star is where a group is joined. Myristoyl = CCCCCCCCCCCCCC(=O)*

Test [1] has as its system CL1-5 cells. Put plainly: Transwell migration assay, CL1-5 cells pretreated with peptide.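 On migration index: index equals control cell count divided by treated cell count.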 In kind it is cell-based, human. The settings on record: 12 hours; for cell number: control approximately 105. The protocol: CL1-5 cells, an aggressively metastatic cell line derived from a human adenocarcinoma, were cultured in RPMI 1640 media with 10% FBS, 37° C. at 95% […]/5% CO2 until ready for use. Transwell plates (24-well, 8-um pore size; Costar, Cambridge, Mass., USA) were used to conduct the migration assay. The lower chambers of the Transwell plates were filled with 600 μl of basal media containing 10% FBS. The cells (1×10^5) were pretreated with 50 or 100 μM of the indicated test peptide for 30 min, and then suspended in 100 μl of basal media containing 1% BSA and added to the upper chamber, and the cells then were incubated at 37° C. for 12 hr. The cells on the upper surface of the filters were removed using cotton swabs, and the cells that migrated to the lower surface of the filters were washed, fixed, and stained with hematoxylin and counted under the microscope. The percent change in migration was determined by counting the number of cells that migrated to the lower surface of the filters. At least 3 separate microscopic fields were counted per membrane (n=4).
Primary CL1-5 cells originated from human adenocarcinoma lung cancer Transwell plates with 24-wells, 8-μ pore size (Costar, Cambridge, Mass., USA) were used to conduct the migration assay. The lower chambers of the transwell plates were filled with 600 μL of basal media containing 10% FBS. The cells (1-2×10^5) were suspended in 100 μL of basal media containing 1% BSA. The test peptide at desired concentration was added to the upper chamber directly or after preincubation with cancer cells. The plates were then incubated at 37° C. for 12 hours. The cells on the upper surface of the filters were removed using cotton swabs. The cells that migrated to the lower surface of the filters were washed, fixed, and stained with hematoxylin and counted under the microscope. At least five separate microscopic fields are counted per membrane (n=3). The percent change in migration was determined by counting the number of cells that migrated to the lower surface of the filters.
The count means the actual number of cells which migrated to the lower chamber and counted by a light microscope at 40× magnification, presented as the mean number of cells in 10 randomly chosen fields for each treatment.
The “index” was calculated by dividing the number of cells that migrated in the presence of peptides by the number of cells that migrated randomly (control group). […]. This calculation can reflect the extent that the migration of cells was blocked by 30 minute pretreatment with MANS-related peptides.

Test [2] concerns A549. The experiment in a line: Transwell migration assay, A549 cells. The format is cell-based, human. The following applies: 12 hr; for migration index numbers relative to control and to RNS peptide / migrated cell numbers relative to control and to RNS peptide: A549, 50 μm; for migrated cell numbers relative to control and to RNS peptide / cell numbers in comparison to control, RNS peptide and MANS peptide: FIG. 11; for cell numbers in comparison to control, RNS peptide and MANS peptide: A549, 25 μm. The protocol: The human adenocarcinoma-derived alveolar epithelial cell line A549 (an invasive cell line) was obtained from the American Type Culture Collection (ATCC) and was cultured in RPMI-1640 supplemented with 10% fetal bovine serum and 100 U/ml penicillin/streptomycin, in 75 cm^2 tissue culture flasks. The cells reached confluence by the third day of culture at 37° C. in an atmosphere of 95% air and 5% CO2 and were maintained by serial passage.
The test peptides (MANS, RNS, BIO-11006, BIO-11000, BIO-11002, BIO-91200, and BIO-10901) were dissolved in PBS at a pH of 7.0; slow vortex mixing for about two hours aided solubility.
Transwell plates (24-well, […]; Costar, Cambridge, Mass., USA) were used to conduct the migration assay. The lower chambers of the transwell plates were filled with 600 μl of basal medium containing 10% FBS. The cells (1×10^5) were suspended in 100 μl of basal medium containing 1% BSA and added to the upper chamber, and the plates incubated at 37° C. with 5% CO2 for 12 hr in PBS (control), or the indicated test peptides at 10, 25 or 50 μM. The cells on the upper surface of the filters were removed using cotton swabs. The cells that migrated to the lower surface of the filters were washed, fixed, and stained with hematoxylin and counted under the microscope. The percent change in migration is determined by counting the number of cells that migrated to the lower surface of the filters. At least four separate microscopic fields are counted per membrane, with a total of three replicate experiments at each concentration. The statistics software “Prizm” was used for data analysis.

Test [3] deals with PC-9 cells. The experiment in a line: Orthotopic lung injection xenograph model, PC-9 cells in nude mice. In kind it is in vivo. The following applies: 50 nmoles i.p. once every three days, 25 days. The protocol:
The metastatic activity of cancer cells in vivo after treatment with MANS peptide or BIO-11006 was assessed in the orthotopic lung injection xenograph model. After pretreatment with either PBS, or PBS+MANS, BIO-11006 (SEQ ID NO: 106), or the control RNS peptide at 100 μM for 4 hours, PC-9 cells were injected into the left lobe of the lung of nude mice. Seven days later, these mice were given systemic treatment with either PBS only (Con), RNS (additional control peptide), MANS or BIO-11006 at 50 nmoles per intraperitoneal injection once every three days. At 25 days (6 injections) post-seeding of these tumor cells, mice were sacrificed and the number of metastasized tumor nodules in the contralateral lung and other organs was counted.

Where [4] appears, read: CL1-5, 50 μmolar pretreatment, FIG. 9.
[5] abbreviates: CL1-5, 50 μmolar pretreatment, FIG. 9, control=1.0.
Where [6] appears, read: CL1-5, 100 μmolar pretreatment, FIG. 10.
Setting [7] is: CL1-5, 100 μmolar pretreatment, FIG. 10, control=1.0.
[8] abbreviates: CL1-5, 50 μmolar, FIG. 8A, control=1, higher value signifies less migration.
The mark [9] stands for this setting: CL1-5, 100 μmolar, FIG. 8B, control=1, higher value signifies less migration.
Setting [10] is: CL1-5, pretreatment at 50 μmolar, FIG. 7A.
The mark [11] stands for this setting: CL1-5, pretreatment at 100 μmolar, FIG. 7B.

For the substance “N-myristoyl-GAQFSKTAAK (Myristoyl-GAQFSKTAAK; listed as Homo sapiens) [BIO-11000]”, the cell number result in test [1] (setting [4]) was “approximately 70”; in test [1] (setting [6]), “approximately 50”. For the same substance, the migration index entry is on record as “approximately 1.5” in test [1] (setting [5]) and “approximately 2.3” in test [1] (setting [7]). Further, the “migration index numbers relative to control and to RNS peptide” value in test [2] is recorded as “increased migration index numbers”. The “migrated cell numbers relative to control and to RNS peptide” value in test [2] is “decreased migrated cell numbers”.
On to “N-myristoyl-AKGE (Myristoyl-AKGE; listed as Homo sapiens) [BIO-91200]”, for which the migration index entry was “approximately 1.7” in test [1] (setting [8]), “approximately 2.1” in test [1] (setting [7]) and “approximately 2.4” in test [1] (setting [9]). In addition, the cell number entry in test [1] (setting [6]) is given as “approximately 55”. The values for the migrated cell numbers result in test [1] (setting [10]) and in test [1] (setting [11]) were “approximately 65” and “approximately 40”, respectively. Also, in test [2], the “cell numbers in comparison to control, RNS peptide and MANS peptide” value was “significantly reduced cell numbers”. Further, in test [2], the “migration index numbers relative to control and to RNS peptide” value is listed as “increased migration index numbers”. Further, the “migrated cell numbers relative to control and to RNS peptide” value in test [2] is “decreased migrated cell numbers”.
With “N-myristoyl-GAQFSKTAAK-NH2 (Myristoyl-GAQFSKTAAK-NH2; SMILES CCCCCCCCCCCCCC(=O)NCC(=O)N[C@@H](C)C(=O)N[C@@H](CCC(N)=O)C(=O)N[C@@H](Cc1ccccc1)C(=O)N[C@@H](CO)C(=O)N[C@@H](CCCCN)C(=O)N[C@H](C(=O)N[C@@H](C)C(=O)N[C@@H](C)C(=O)N[C@@H](CCCCN)C(N)=O)[C@@H](C)O) [BIO-11002]”, in test [1] (setting [8]), the migration index entry is listed as “approximately 2.7”. In addition, the migration index entry in test [1] (setting [9]) is recorded as “approximately 3.8”. Moreover, in test [1] (setting [10]), the migrated cell numbers entry was “approximately 50”. Further, the migrated cell numbers result in test [1] (setting [11]) was “approximately 25”. For the same substance, in test [2], the “cell numbers in comparison to control, RNS peptide and MANS peptide” value was “significantly reduced cell numbers”; the “migration index numbers relative to control and to RNS peptide” value is recorded as “increased migration index numbers”; the “migrated cell numbers relative to control and to RNS peptide” value is “decreased migrated cell numbers”.
Regarding “N-acetyl-GAQFSKTAA (Ac-GAQFSKTAA; listed as Homo sapiens) [BIO-10901]”, the migration index result in test [1] (setting [8]) was “approximately 1.75”; in test [1] (setting [9]) it was “approximately 2.7”. The migrated cell numbers result in test [1] (setting [10]) was “approximately 60”; in test [1] (setting [11]), “approximately 35”. In addition, the “migration index numbers relative to control and to RNS peptide” value in test [2] is listed as “increased migration index numbers”. Further, the “migrated cell numbers relative to control and to RNS peptide” value in test [2] is reported as “decreased migrated cell numbers”.
Turning to “GTAPAAEGAGAEVKRASAEAKQAF (Myristoyl-GTAPAAEGAGAEVKRASAEAKQAF) [RNS peptide, reference compound]”, the cell number result was “approximately 90” in test [1] (setting [4]) and “approximately 95” in test [1] (setting [6]). Also, the migration index entry is recorded as “approximately 1.3” in test [1] (setting [5]), “approximately 1.1” in test [1] (setting [8]), “approximately 1.2” in test [1] (setting [7]) and “approximately 1” in test [1] (setting [9]). The migrated cell numbers result in test [1] (setting [10]) was “approximately 95”; in test [1] (setting [11]), “approximately 90”. For the same substance, the “Metastases (affected mice/total mice) Diaphragm” value in test [3] is 3/4. For the same substance, the “Metastases (affected mice/total mice) Heart” value in test [3] is listed as 3/4. Moreover, the “Metastases (affected mice/total mice) Intestines” value in test [3] was 1/4. The “Metastases (affected mice/total mice) Spleen” value in test [3] is 2/4. In addition, in test [3] (left lung), the “No. of Metastatic Lung Tumors Mean ± SE (L't)” value is reported as 1.00 ± 0.40;. Also, the “No. of Metastatic Lung Tumors Mean ± SE (R't)” value in test [3] (right lung) is listed as 5.75 ± 2.01. In addition, the “Tumor Size (mm) Mean ± SE” value in test [3] (tumor at site of injection, cells pretreated 100 μM 4 hours) came to 1.72 ± 0.41 mm.
